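Interpolation was linear, between the two tested concentrations surrounding the appropriate level; five concentrations were tested over 48 hours in 96-well plates. GI50 marks 50% less growth. Definition used: TGI = concentration required for complete inhibition of growth.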
Key:
Test in all cases: NCI tumour cell line growth inhibition, 48 h
[1] = tested on: A498 renal
[2] = tested on: A549 NSCLC
[3] = tested on: ACHN renal
[4] = tested on: CAKI-1 renal
[5] = tested on: CCRF-CEM leukemia
[6] = tested on: COLO 205 colon
[7] = tested on: DU-145 prostate
[8] = tested on: EKVX NSCLC
[9] = tested on: HCC-2998 colon
[10] = tested on: HCT-116 colon
[11] = tested on: HCT-15 colon
[12] = tested on: HL-60(TB) leukemia
[13] = tested on: HOP-62 NSCLC
[14] = tested on: HS 578T breast
[15] = tested on: HT29 colon
[16] = tested on: IGROV1 ovarian
[17] = tested on: K-562 leukemia
[18] = tested on: KM12 colon
[19] = tested on: LOX IMVI melanoma
[20] = tested on: M14 melanoma
[21] = tested on: MALME-3M melanoma
[22] = tested on: MCF7 breast
[23] = tested on: MDA-MB-231 breast
[24] = tested on: MDA-MB-435
[25] = tested on: MOLT-4 leukemia
[26] = tested on: NCI-H226 lung
[27] = tested on: NCI-H23 lung
[28] = tested on: NCI-H460 lung
[29] = tested on: NCI-H522 lung
[30] = tested on: NCI/ADR-RES ovarian
[31] = tested on: OVCAR-3 ovarian
[32] = tested on: OVCAR-4 ovarian
[33] = tested on: OVCAR-5 ovarian
[34] = tested on: OVCAR-8 ovarian
[35] = tested on: PC-3 prostate
[36] = tested on: RPMI-8226 leukemia
[37] = tested on: RXF 393 renal
[38] = tested on: SF-268 CNS
[39] = tested on: SF-295 CNS
[40] = tested on: SF-539 CNS
[41] = tested on: SK-MEL-2 melanoma
[42] = tested on: SK-MEL-28 melanoma
[43] = tested on: SK-MEL-5 melanoma
[44] = tested on: SK-OV-3 ovarian
[45] = tested on: SN12C renal
[46] = tested on: SNB-19 CNS
[47] = tested on: SNB-75 CNS
[48] = tested on: SR leukemia
[49] = tested on: SW-620 colon
[50] = tested on: T-47D breast
[51] = tested on: TK-10 renal
[52] = tested on: U251 CNS
[53] = tested on: UACC-62 melanoma
[54] = tested on: UO-31 renal
[55] = tested on: 786-0 renal
[56] = tested on: BT-549 breast
[57] = tested on: HOP-92 NSCLC
[58] = tested on: UACC-257 melanoma

CCN(CCO)C(=O)C1(c2ccccc2)CCCCC1
TGI [1]: > 10 µM | TGI [2]: > 10 µM | TGI [3]: > 10 µM | TGI [4]: > 10 µM | TGI [5]: > 10 µM | TGI [6]: > 10 µM | TGI [7]: > 10 µM | TGI [8]: > 10 µM | TGI [9]: > 10 µM | TGI [10]: > 10 µM | TGI [11]: > 10 µM | TGI [12]: > 10 µM | TGI [13]: > 10 µM | TGI [14]: > 10 µM | TGI [15]: > 10 µM | TGI [16]: > 10 µM | TGI [17]: > 10 µM | TGI [18]: > 10 µM | TGI [19]: > 10 µM | TGI [20]: > 10 µM | TGI [21]: > 10 µM | TGI [22]: > 10 µM | TGI [23]: > 10 µM | TGI [24]: > 10 µM | TGI [25]: > 10 µM | TGI [26]: > 10 µM | TGI [27]: > 10 µM | TGI [28]: > 10 µM | TGI [29]: > 10 µM | TGI [30]: > 10 µM | TGI [31]: > 10 µM | TGI [32]: > 10 µM | TGI [33]: > 10 µM | TGI [34]: > 10 µM | TGI [35]: > 10 µM | TGI [36]: > 10 µM | TGI [37]: > 10 µM | TGI [38]: > 10 µM | TGI [39]: > 10 µM | TGI [40]: > 10 µM | TGI [41]: > 10 µM | TGI [42]: > 10 µM | TGI [43]: > 10 µM | TGI [44]: > 10 µM | TGI [45]: > 10 µM | TGI [46]: > 10 µM | TGI [47]: > 10 µM | TGI [48]: > 10 µM | TGI [49]: > 10 µM | TGI [50]: > 10 µM | TGI [51]: > 10 µM | TGI [52]: > 10 µM | TGI [53]: > 10 µM | TGI [54]: > 10 µM

O=C(CC1C(=O)NN(c2ccc(Br)cc2)C1=O)c1cc(O)ccc1O (stereo not drawn)
GI50 [55]: 22.4 µM | TGI [55]: > 50 µM | GI50 [1]: > 50 µM | TGI [1]: > 50 µM | GI50 [2]: > 50 µM | TGI [2]: > 50 µM | GI50 [3]: 14.8 µM | TGI [3]: 49.4 µM | GI50 [56]: 13.9 µM | TGI [56]: > 50 µM | GI50 [4]: 14.4 µM | TGI [4]: 35.7 µM | GI50 [5]: > 50 µM | TGI [5]: > 50 µM | GI50 [6]: 23.3 µM | TGI [6]: > 50 µM | GI50 [7]: 21.2 µM | TGI [7]: > 50 µM | GI50 [8]: 27.8 µM | TGI [8]: > 50 µM | GI50 [10]: 26.2 µM | TGI [10]: > 50 µM | GI50 [11]: 8.5 µM | TGI [11]: 20 µM | GI50 [12]: 23.5 µM | TGI [12]: > 50 µM | GI50 [57]: 11.6 µM | TGI [57]: > 50 µM | GI50 [14]: 26.2 µM | TGI [14]: > 50 µM | GI50 [15]: 22 µM | TGI [15]: > 50 µM | GI50 [16]: 40 µM | TGI [16]: > 50 µM | GI50 [17]: 14.8 µM | TGI [17]: > 50 µM | GI50 [18]: 9.84 µM | TGI [18]: 40.6 µM | GI50 [19]: 8.3 µM | TGI [19]: 19.5 µM | GI50 [20]: 31.2 µM | TGI [20]: > 50 µM | GI50 [22]: 21.2 µM | TGI [22]: > 50 µM | GI50 [23]: 8.44 µM | TGI [23]: 22.4 µM | GI50 [24]: 7.2 µM | TGI [24]: 23.1 µM | GI50 [25]: > 50 µM | TGI [25]: > 50 µM | GI50 [26]: 10.4 µM | TGI [26]: 36.9 µM | GI50 [27]: 19.8 µM | TGI [27]: > 50 µM | GI50 [28]: 23 µM | TGI [28]: > 50 µM | GI50 [29]: 18.5 µM | TGI [29]: > 50 µM | GI50 [30]: 19.6 µM | TGI [30]: > 50 µM | GI50 [31]: 7.41 µM | TGI [31]: 21.7 µM | GI50 [32]: 30.6 µM | TGI [32]: > 50 µM | GI50 [33]: 34.7 µM | TGI [33]: > 50 µM | GI50 [34]: 18.4 µM | TGI [34]: > 50 µM | GI50 [35]: 24.1 µM | TGI [35]: > 50 µM | GI50 [36]: 16.5 µM | TGI [36]: > 50 µM | GI50 [37]: > 50 µM | TGI [37]: > 50 µM | GI50 [38]: 29 µM | TGI [38]: > 50 µM | GI50 [39]: 11 µM | TGI [39]: 29.7 µM | GI50 [40]: 11.3 µM | TGI [40]: 27.3 µM | GI50 [41]: 36.5 µM | TGI [41]: > 50 µM | GI50 [42]: 28 µM | TGI [42]: > 50 µM | GI50 [43]: 18.6 µM | TGI [43]: > 50 µM | GI50 [45]: 13.6 µM | TGI [45]: 40.3 µM | GI50 [46]: 22.7 µM | TGI [46]: > 50 µM | GI50 [47]: 24.8 µM | TGI [47]: > 50 µM | GI50 [48]: > 50 µM | TGI [48]: > 50 µM | GI50 [49]: 17.9 µM | TGI [49]: > 50 µM | GI50 [51]: 15.5 µM | TGI [51]: > 50 µM | GI50 [52]: 14.2 µM | TGI [52]: 36 µM | GI50 [58]: 19.6 µM | TGI [58]: > 50 µM | GI50 [53]: 12 µM | TGI [53]: 27.7 µM | GI50 [54]: 41.2 µM | TGI [54]: > 50 µM

Oc1c2cc(Cl)cc1COCc1cc(Cl)cc(c1O)COCc1cc(Cl)cc(c1O)COC2
TGI [55]: 37.7 µM | TGI [1]: > 100 µM | TGI [2]: > 100 µM | TGI [3]: > 100 µM | TGI [56]: > 100 µM | TGI [5]: 59.5 µM | TGI [6]: > 100 µM | TGI [7]: > 100 µM | TGI [8]: > 100 µM | TGI [9]: > 100 µM | TGI [10]: > 100 µM | TGI [11]: > 100 µM | TGI [12]: 8.43 µM | TGI [13]: > 100 µM | TGI [57]: 92.2 µM | TGI [16]: > 100 µM | TGI [17]: > 100 µM | TGI [18]: > 100 µM | TGI [19]: > 100 µM | TGI [20]: 64.7 µM | TGI [22]: > 100 µM | TGI [24]: > 100 µM | TGI [26]: > 100 µM | TGI [27]: 98.6 µM | TGI [28]: > 100 µM | TGI [30]: > 100 µM | TGI [31]: > 100 µM | TGI [32]: > 100 µM | TGI [33]: > 100 µM | TGI [34]: 32.9 µM | TGI [35]: > 100 µM | TGI [36]: > 100 µM | TGI [37]: > 100 µM | TGI [39]: > 100 µM | TGI [41]: > 100 µM | TGI [42]: > 100 µM | TGI [43]: > 100 µM | TGI [44]: > 100 µM | TGI [46]: > 100 µM | TGI [47]: 63.4 µM | TGI [48]: > 100 µM | TGI [49]: > 100 µM | TGI [50]: > 100 µM | TGI [51]: > 100 µM | TGI [52]: > 100 µM | TGI [58]: > 100 µM | TGI [53]: > 100 µM | TGI [54]: > 100 µM

Source: PubChem BioAssay (NCI)
